Experimental data: the NIST ThermoML archive (doi:10.1016/j.jct.2018.03.013)
Numbers after ± are expanded uncertainties.

What was measured:
[1] = 100 kPa, Liquid; for speed of sound: Frequency=3 MHz, Linear variable-path acoustic interferometer; for mass density: Pycnometric method
[2] = xn = mol fraction of the nth substance listed; conditions: 100 kPa, Liquid, x1 = 1; for speed of sound: Frequency=3 MHz, Linear variable-path acoustic interferometer; for mass density: Pycnometric method

Row | Structure (SMILES) | speed of sound ([1]; 293.15 K) [m/s] | mass density ([1]; 293.15 K) [kg/m3] | speed of sound ([1]; 298.15 K) [m/s] | mass density ([1]; 298.15 K) [kg/m3] | speed of sound ([1]; 303.15 K) [m/s] | mass density ([1]; 303.15 K) [kg/m3] | speed of sound ([1]; 308.15 K) [m/s] | mass density ([1]; 308.15 K) [kg/m3] | speed of sound ([1]; 313.15 K) [m/s] | mass density ([1]; 313.15 K) [kg/m3] | speed of sound ([1]; 318.15 K) [m/s] | mass density ([1]; 318.15 K) [kg/m3] | speed of sound ([2]; 293.15 K) [m/s] | mass density ([2]; 293.15 K) [kg/m3] | speed of sound ([2]; 298.15 K) [m/s] | mass density ([2]; 298.15 K) [kg/m3] | speed of sound ([2]; 303.15 K) [m/s] | mass density ([2]; 303.15 K) [kg/m3] | speed of sound ([2]; 308.15 K) [m/s] | mass density ([2]; 308.15 K) [kg/m3] | other results
1 | CC#N [acetonitrile] | 1304.7 ± 1.7 | 782.12 ± 1 | 1282.8 ± 1.6 | 776.82 ± 1 | 1263.9 ± 1.6 | 771.52 ± 1 | 1245 ± 1.6 | 766.21 ± 1 | 1226.5 ± 1.6 | 760.9 ± 1 | 1207.9 ± 1.6 | 755.59 ± 1 | – | – | – | – | – | – | – | – | –
2 | CC#N [acetonitrile] + C=C(C)C(=O)OC | – | – | – | – | – | – | – | – | – | – | – | – | 1304.7 ± 1.7 | 782.12 ± 1 | 1282.8 ± 1.6 | 776.82 ± 1 | 1263.9 ± 1.6 | 771.52 ± 1 | 1245 ± 1.6 | 766.21 ± 1 | speed of sound ([2]; 313.15 K): 1226.5 ± 1.6 m/s; mass density ([2]; 313.15 K): 760.9 ± 1 kg/m3; speed of sound ([2]; 318.15 K): 1207.9 ± 1.6 m/s; mass density ([2]; 318.15 K): 755.59 ± 1 kg/m3
3 | CC#N [acetonitrile] + C=C(C)C(=O)OCC | – | – | – | – | – | – | – | – | – | – | – | – | 1304.7 ± 1.7 | 782.12 ± 1 | 1282.8 ± 1.6 | 776.82 ± 1 | 1263.9 ± 1.6 | 771.52 ± 1 | 1245 ± 1.6 | 766.21 ± 1 | speed of sound ([2]; 313.15 K): 1226.5 ± 1.6 m/s; mass density ([2]; 313.15 K): 760.9 ± 1 kg/m3; speed of sound ([2]; 318.15 K): 1207.9 ± 1.6 m/s; mass density ([2]; 318.15 K): 755.59 ± 1 kg/m3
4 | CC#N [acetonitrile] + C=C(C)C(=O)OCCCC | – | – | – | – | – | – | – | – | – | – | – | – | 1304.7 ± 1.7 | 782.12 ± 1 | 1282.8 ± 1.6 | 776.82 ± 1 | 1263.9 ± 1.6 | 771.52 ± 1 | 1245 ± 1.6 | 766.21 ± 1 | speed of sound ([2]; 313.15 K): 1226.5 ± 1.6 m/s; mass density ([2]; 313.15 K): 760.9 ± 1 kg/m3; speed of sound ([2]; 318.15 K): 1207.9 ± 1.6 m/s; mass density ([2]; 318.15 K): 755.59 ± 1 kg/m3

Second part, led by results:

Row | speed of sound ([1]; 293.15 K) [m/s] | mass density ([1]; 293.15 K) [kg/m3] | speed of sound ([1]; 298.15 K) [m/s] | mass density ([1]; 298.15 K) [kg/m3] | speed of sound ([1]; 303.15 K) [m/s] | mass density ([1]; 303.15 K) [kg/m3] | speed of sound ([1]; 308.15 K) [m/s] | mass density ([1]; 308.15 K) [kg/m3] | speed of sound ([1]; 313.15 K) [m/s] | mass density ([1]; 313.15 K) [kg/m3] | speed of sound ([1]; 318.15 K) [m/s] | mass density ([1]; 318.15 K) [kg/m3] | speed of sound ([2]; 293.15 K) [m/s] | mass density ([2]; 293.15 K) [kg/m3] | speed of sound ([2]; 298.15 K) [m/s] | mass density ([2]; 298.15 K) [kg/m3] | speed of sound ([2]; 303.15 K) [m/s] | mass density ([2]; 303.15 K) [kg/m3] | speed of sound ([2]; 308.15 K) [m/s] | mass density ([2]; 308.15 K) [kg/m3] | Structure (SMILES) | other results
5 | 1241.7 ± 1.7 | 895.19 ± 1 | 1222.1 ± 1.7 | 890.48 ± 1 | 1202.4 ± 1.7 | 885.78 ± 1 | 1183 ± 1.7 | 881.07 ± 1 | 1163.8 ± 1.7 | 876.35 ± 1 | 1145.7 ± 1.7 | 871.64 ± 1 | – | – | – | – | – | – | – | – | C=C(C)C(=O)OCCCC [butyl 2-methyl-2-propenoate] | –
6 | 1196.8 ± 1.6 | 912.3 ± 1 | 1176.9 ± 1.6 | 907.18 ± 1 | 1157.6 ± 1.6 | 902.06 ± 1 | 1139.4 ± 1.6 | 896.94 ± 1 | 1121.5 ± 1.6 | 891.83 ± 1 | 1104.6 ± 1.6 | 886.71 ± 1 | – | – | – | – | – | – | – | – | C=C(C)C(=O)OCC [ethyl 2-methylpropenoate] | –
7 | 1200.5 ± 1.6 | 943.38 ± 1 | 1183.6 ± 1.6 | 937.64 ± 1 | 1168.5 ± 1.6 | 931.9 ± 1 | 1152.6 ± 1.6 | 926.16 ± 1 | 1135.4 ± 1.6 | 920.42 ± 1 | 1118.3 ± 1.6 | 914.67 ± 1 | – | – | – | – | – | – | – | – | C=C(C)C(=O)OC [methyl methacrylate] | –
